20 compounds from US20180305332A1, “Bispiperidinyl Derivatives as Liver X Receptor Beta Agonists, Compositions, and Their Use” (Merck Sharp & Dohme Corp., priority 2015, published 2018) can be followed below.

Each structure is given as a SMILES string.

The target in assay [1] is T1, GST tagged LXRbeta LBD (ligand binding domain) (Homo sapiens, UniProt P55055).
T1 construct: purchased Invitrogen pv4658.pps
T1 sequence (P55055 222-460 limits assumed): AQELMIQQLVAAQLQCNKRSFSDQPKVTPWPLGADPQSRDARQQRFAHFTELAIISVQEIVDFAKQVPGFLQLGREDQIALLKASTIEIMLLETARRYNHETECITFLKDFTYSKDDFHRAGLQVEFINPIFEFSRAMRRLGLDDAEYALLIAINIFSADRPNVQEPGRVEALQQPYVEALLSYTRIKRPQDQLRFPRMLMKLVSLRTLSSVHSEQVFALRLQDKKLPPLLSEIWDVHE
Kind of assay: LanthaScreen TR-FRET Liver X Receptor Coactivator Assay, LXR beta-LBD. The assay is classed as biochemical. Conditions: relative to reference T0901317; for EC50: Inflection Point (potency), co-activator recruitment, read-out: LXR beta IP; for Emax: read-out: LXR beta act @ max dose (%). An outline of the steps:
(§1)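 Coactivator-recruitment TR-FRET format: GST-LBD, fluorescein-labelled coactivator peptide, Tb-conjugated anti-GST antibody, incubated at RT. Potency and efficacy scaled to T0901317.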

In assay [2] the target is T2, GST tagged LXRalpha LBD (ligand binding domain) (Homo sapiens, UniProt Q13133).
T2 construct: purchased Invitrogen pv4655
T2 sequence (Q13133 209-447 limits assumed): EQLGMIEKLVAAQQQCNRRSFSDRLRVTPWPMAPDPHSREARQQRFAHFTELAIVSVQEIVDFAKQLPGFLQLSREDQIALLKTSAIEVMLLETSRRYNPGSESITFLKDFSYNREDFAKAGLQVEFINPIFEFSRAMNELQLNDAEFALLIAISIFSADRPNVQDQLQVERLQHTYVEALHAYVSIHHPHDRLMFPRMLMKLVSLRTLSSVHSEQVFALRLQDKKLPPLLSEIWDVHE
Kind of assay: LanthaScreen TR-FRET Liver X Receptor Coactivator Assay, LXR alpha-LBD. The assay is classed as biochemical. The conditions noted are these: relative to reference T0901317; for EC50: read-out: LXR alpha IP; for Emax: read-out: LXR alpha act @ max dose (%). An outline of the steps: as §1

Where [3] appears, read: activity at max dose (efficacy).
Setting [4] is: Inflection Point (potency), co-activator recruitment.

As to `CN(C)C(=O)c1ccc(N2CCC(C3CCN(C(=O)C4(c5cccc(F)c5)CCC4)CC3)CC2)cc1Cl` [Example A-17, 2-chloro-4-(1′-{[1-(3-fluorophenyl)cyclobutyl]carbonyl}-4,4′-bipiperidin-1-yl)-N,N-dimethylbenzamide], the EC50 in assay [1] was 204 nM; in assay [2] (setting [4]) it was 2260 nM. The Emax came to 100% in assay [1] (setting [3]) and 14% in assay [2] (setting [3]).

As to `CN(C)C(=O)c1ccc(N2CCC(C3CCN(C(=O)C4(c5c(F)cccc5Cl)CCCC4)CC3)CC2)cc1Cl` [Example A-82, 2-chloro-4-(1′-{[1-(2-chloro-6-fluorophenyl)cyclopentyl]carbonyl}-4,4′-bipiperidin-1-yl)-N,N-dimethylbenzamide], the EC50 in assay [1] is 7 nM; in assay [2] (setting [4]) it was 148 nM. The results for the Emax in assay [1] (setting [3]) and in assay [2] (setting [3]) were 107% and 58%, respectively.

Turning to `CN(C)C(=O)c1ccc(N2CCC(C3CCN(C(=O)C(C)(C)C(F)(F)F)CC3)CC2)cc1Cl` [Example A-41, 2-chloro-N,N-dimethyl-4-[1′-(3,3,3-trifluoro-2,2-dimethylpropanoyl)-4,4′-bipiperidin-1-yl]benzamide], the EC50 was determined as 84 nM in assay [1] and 3390 nM in assay [2] (setting [4]). Besides, the Emax in assay [1] (setting [3]) amounted to 112%; in assay [2] (setting [3]) it was 71%.

As to `CC(C)CC(O)(C(=O)N1CCC(C2CCN(c3ccc(C(=O)N(C)C)c(Cl)c3)CC2)CC1)C(F)(F)F` (centres unmarked) [Example A-90, 2-chloro-4-{1′-[2-hydroxy-4-methyl-2-(trifluoromethyl)pentanoyl]-4,4′-bipiperidin-1-yl}-N,N-dimethylbenzamide], the values for the EC50 in assay [1] and in assay [2] (setting [4]) were 108 nM and 686 nM, respectively. In assay [1] (setting [3]), the “LXR beta act @ max dose (%)” value was 70%. In assay [2] (setting [3]), the “LXR alpha act @ max dose (%)” value is 45%.

Regarding `COc1ccccc1C(C)(C)C(=O)N1CCC(C2CCN(c3ccc(C(=O)N(C)C)c(Cl)c3)CC2)CC1` [Example A-88, 2-chloro-4-{1′-[2-(2-methoxyphenyl)-2-methylpropanoyl]-4,4′-bipiperidin-1-yl}-N,N-dimethylbenzamide], the EC50 in assay [1] worked out at 74 nM; in assay [2] (setting [4]) it was 1080 nM. The values for the Emax in assay [1] (setting [3]) and in assay [2] (setting [3]) were 101% and 37%, respectively.

Turning to `CC(C)N(C)C(=O)c1ccc(N2CCC(C3CCN(C(=O)C(O)(C(C)C)C(F)(F)F)CC3)CC2)cc1Cl` (centres unmarked) [Example E-6, 2-chloro-4-{1′-[2-hydroxy-3-methyl-2-(trifluoromethyl)butanoyl]-4,4′-bipiperidin-1-yl}-N-methyl-N-(1-methylethyl)benzamide], the EC50 in assay [1] turned out to be 111 nM; in assay [2] (setting [4]), 761 nM. Further, the values for the Emax in assay [1] (setting [3]) and in assay [2] (setting [3]) were 101% and 53%, respectively.

In the case of `CC(C)[C@@](O)(C(=O)N1CCC(C2CCN(c3ccc(C(=O)N(C)C)c(Cl)c3)CC2)CC1)C(F)(F)F` (single isomer, unassigned) [Example A-2], the values for the EC50 in assay [1] and in assay [2] (setting [4]) were 35 nM and 1030 nM, respectively. Besides, the Emax in assay [1] (setting [3]) came to 100%; in assay [2] (setting [3]) it was 41%.

Regarding `CN(Cc1ccno1)C(=O)c1ccc(N2CCC(C3CCN(C(=O)[C@](O)(c4ccccc4)C(F)(F)F)CC3)CC2)cc1Cl` [Example E-50, 2-chloro-N-(isoxazol-5-ylmethyl)-N-methyl-4-{1′-[(2R)-3,3,3-trifluoro-2-hydroxy-2-phenylpropanoyl]-4,4′-bipiperidin-1-yl}benzamide], the EC50 came to 349 nM in assay [1] and 1400 nM in assay [2] (setting [4]). In addition, the Emax stood at 74% in assay [1] (setting [3]) and 31% in assay [2] (setting [3]).

As for `CC(C)C(O)(C(=O)N1CCC(C2CCN(c3ccc(C(=O)N(C)C)c(Cl)n3)CC2)CC1)C(F)(F)F` (stereo in doubt) [Example B-6, 2-chloro-6-{1′-[(2S)-2-hydroxy-3-methyl-2-(trifluoromethyl)butanoyl]-4,4′-bipiperidin-1-yl}-N,N-dimethylpyridine-3-carboxamide], the EC50 in assay [1] was determined as 38 nM; in assay [2] (setting [4]), 1670 nM. Moreover, the values for the Emax in assay [1] (setting [3]) and in assay [2] (setting [3]) were 108% and 46%, respectively.

As for `C#CC(C)(C)C(=O)N1CCC(C2CCN(c3ccc(C(=O)N(C)C)c(Cl)c3)CC2)CC1` [Example A-11, 2-chloro-4-[1′-(2,2-dimethylbut-3-ynoyl)-4,4′-bipiperidin-1-yl]-N,N-dimethylbenzamide], the EC50 in assay [1] stood at 512 nM; in assay [2] (setting [4]), 2100 nM. The Emax worked out at 125% in assay [1] (setting [3]) and 62% in assay [2] (setting [3]).

For the compound `Cc1ccc(C(C)(C)C(=O)N2CCC(C3CCN(c4ccc(C(=O)N(C)C)c(Cl)c4)CC3)CC2)cc1` [Example A-92, 2-chloro-N,N-dimethyl-4-{1′-[2-methyl-2-(4-methylphenyl)propanoyl]-4,4′-bipiperidin-1-yl}benzamide], the EC50 in assay [1] was 193 nM; in assay [2] (setting [4]), 2840 nM. Moreover, the Emax in assay [1] (setting [3]) was 99%; in assay [2] (setting [3]), 31%.

For `CN(C)C(=O)c1ccc(N2CCC(C3CCN(C(=O)OC(C)(C)C)CC3)CC2)cc1Cl` [Example A-1, tert-Butyl 1′-(3-chloro-4-(dimethylcarbamoyl)phenyl)-[4,4′-bipiperidine]-1-carboxylate], the EC50 in assay [1] stood at 16 nM; in assay [2] (setting [4]) it was 748 nM. Besides, the Emax came to 106% in assay [1] (setting [3]) and 76% in assay [2] (setting [3]).

`CCCCN(C)C(=O)c1ccc(N2CCC(C3CCN(C(=O)[C@](O)(c4ccccc4)C(F)(F)F)CC3)CC2)cc1Cl` [Example E-59, N-butyl-2-chloro-N-methyl-4-{1′-[(2R)-3,3,3-trifluoro-2-hydroxy-2-phenylpropanoyl]-4,4′-bipiperidin-1-yl}benzamide]: the EC50 is 208 nM in assay [1] and 2380 nM in assay [2] (setting [4]). In addition, the values for the Emax in assay [1] (setting [3]) and in assay [2] (setting [3]) were 89% and 21%, respectively.

`CN(C)C(=O)c1ccc(N2CCC(C3CCN(C(=O)C4(c5ccccc5Cl)CCCC4)CC3)CC2)cc1Cl` [Example A-94, 2-chloro-4-(1′-{[1-(2-chlorophenyl)cyclopentyl]carbonyl}-4,4′-bipiperidin-1-yl)-N,N-dimethylbenzamide]: the EC50 in assay [1] worked out at 13 nM; in assay [2] (setting [4]), 250 nM. Moreover, the Emax was 124% in assay [1] (setting [3]) and 67% in assay [2] (setting [3]).

As to `O=C(c1ccc(N2CCC(C3CCN(C(=O)[C@](O)(c4ccccc4)C(F)(F)F)CC3)CC2)cc1Cl)N1CC(c2cccnc2)C1` [Example E-43, (2R)-3-(1′-{3-chloro-4-[(3-pyridin-3-ylazetidin-1-yl)carbonyl]phenyl}-4,4′-bipiperidin-1-yl)-1,1,1-trifluoro-3-oxo-2-phenylpropan-2-ol], the EC50 in assay [1] was 355 nM; in assay [2] (setting [4]), 3010 nM. Besides, the Emax in assay [1] (setting [3]) was found to be 50%; in assay [2] (setting [3]), 24%.

In the case of `CN(C)C(=O)c1ccc(N2CCC(C3CCN(C(=O)C4(c5ccccc5F)CC4)CC3)CC2)cc1Cl` [Example A-71, 2-chloro-4-(1′-{[1-(2-fluorophenyl)cyclopropyl]carbonyl}-4,4′-bipiperidin-1-yl)-N,N-dimethylbenzamide], the EC50 in assay [1] stood at 64 nM; in assay [2] (setting [4]), 1640 nM. In addition, the results for the Emax in assay [1] (setting [3]) and in assay [2] (setting [3]) were 127% and 62%, respectively.

With `O=C(c1ccc(N2CCC(C3CCN(C(=O)[C@](O)(c4ccccc4)C(F)(F)F)CC3)CC2)cc1Cl)N1CCCC1C1CC1` (stereo partly drawn) [Example E-57, (2R)-3-(1′-{3-chloro-4-[(2-cyclopropylpyrrolidin-1-yl)carbonyl]phenyl}-4,4′-bipiperidin-1-yl)-1,1,1-trifluoro-3-oxo-2-phenylpropan-2-ol], the results for the EC50 in assay [1] and in assay [2] (setting [4]) were 134 nM and 975 nM, respectively. For the same compound, the values for the Emax in assay [1] (setting [3]) and in assay [2] (setting [3]) were 65% and 16%, respectively.

As for `CCN(CC)C(=O)c1ccc(N2CCC(C3CCN(C(=O)C(O)(C(C)C)C(F)(F)F)CC3)CC2)cc1Cl` (centres unmarked) [Example E-9, 2-chloro-N,N-diethyl-4-{1′-[2-hydroxy-3-methyl-2-(trifluoromethyl)butanoyl]-4,4′-bipiperidin-1-yl}benzamide], the EC50 in assay [1] worked out at 30 nM; in assay [2] (setting [4]) it was 114 nM. Further, the figures for the Emax in assay [1] (setting [3]) and in assay [2] (setting [3]) were 96% and 49%, respectively.

Take `CC(C)C(O)(C(=O)N1CCC(C2CCN(c3cc(Cl)c(C(=O)N(C)C)c(Cl)c3)CC2)CC1)C(F)(F)F` (centres unmarked) [Example A-34, 2,6-dichloro-4-{1′-[2-hydroxy-3-methyl-2-(trifluoromethyl)butanoyl]-4,4′-bipiperidin-1-yl}-N,N-dimethylbenzamide]: the EC50 is 119 nM in assay [1] and 1350 nM in assay [2] (setting [4]). Further, the Emax in assay [1] (setting [3]) came to 103%; in assay [2] (setting [3]), 46%.

As to `COc1ccc(C2(C(=O)N3CCC(C4CCN(c5ccc(C(=O)N(C)C)c(Cl)c5)CC4)CC3)CC2)cc1` [Example A-48, 2-chloro-4-(1′-{[1-(4-methoxyphenyl)cyclopropyl]carbonyl}-4,4′-bipiperidin-1-yl)-N,N-dimethylbenzamide], in assay [1], the EC50 is 289 nM. Further, the Emax in assay [1] (setting [3]) worked out at 69%; in assay [2] (setting [3]) it was 0%. In assay [2] (setting [4]), the “LXR alpha IP (nM)” value is reported as “NO IP”.
